Among the data in patent US9505728B2, “Triazolone compounds and uses thereof” (INCEPTION 2, INC., priority 2012, dated 2016) are IC50 values, retold here.

The target of the assay is T1, Human PPARα (Homo sapiens, UniProt Q07869).
T1 construct: host or cells: proprietary non-human mammalian cells
T1 sequence (Q07869 1-468): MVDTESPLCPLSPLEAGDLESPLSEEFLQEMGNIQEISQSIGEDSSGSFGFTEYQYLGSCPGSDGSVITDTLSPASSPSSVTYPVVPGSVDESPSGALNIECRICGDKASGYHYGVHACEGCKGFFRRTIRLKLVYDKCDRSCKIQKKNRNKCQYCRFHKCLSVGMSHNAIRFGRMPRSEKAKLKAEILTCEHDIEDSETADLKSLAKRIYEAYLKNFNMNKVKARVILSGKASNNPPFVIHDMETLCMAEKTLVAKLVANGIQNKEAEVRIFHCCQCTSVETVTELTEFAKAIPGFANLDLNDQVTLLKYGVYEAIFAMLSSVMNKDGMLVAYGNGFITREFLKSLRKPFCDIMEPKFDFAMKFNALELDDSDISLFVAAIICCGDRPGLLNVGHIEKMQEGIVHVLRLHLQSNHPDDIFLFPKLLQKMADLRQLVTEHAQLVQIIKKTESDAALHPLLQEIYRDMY
The assay can be described thus: Human PPARα Reporter Assay (luciferase). In kind it is cell-based. The following applies: human PPARα reporter cells, overnight incubation, antagonism; read-out: Luciferase IC50. Summed up:
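Agonist or antagonist activity read as luciferase light from engineered reporter cells carrying human PPARα and a responsive reporter gene. Cells got compound immediately on dispensing, incubated overnight, then treatment media swapped for luciferase detection reagent.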
In general terms: Reporter assays use an easily measured gene product as a stand-in for the process of interest.

The structures appear in SMILES notation. pIC50: −log10 of the molar value.

As for `CCn1c(CCCc2ccc(-c3cccc(C(=O)NS(=O)(=O)c4ccccc4)c3)cc2)nn(Cc2ccc(C(C)(C)C)cc2)c1=O` [Example 9, 4′-(3-(1-(4-(tert-Butyl)benzyl)-4-ethyl-5-oxo-4,5-dihydro-1H-1,2,4-triazol-3-yl)propyl)-N-(phenylsulfonyl)-[1,1′-biphenyl]-3-carboxamide], the negative-log IC50 (pIC50) is 6.44.

On to `CCn1c(CCCc2ccc(-c3cc(NS(=O)(=O)c4ccccc4)ccn3)cc2)nn(Cc2ccc(C(C)(C)C)cc2)c1=O` [Example 16, N-(2-(4-(3-(1-(4-(tert-Butyl)benzyl)-4-ethyl-5-oxo-4,5-dihydro-1H-1,2,4-triazol-3-yl)propyl)phenyl)pyridin-4-yl)benzenesulfonamide], for which the pIC50 is 7.05.

With `CCn1c(CCCc2ccc(-c3cccc(CNS(C)(=O)=O)c3)cc2)nn(Cc2ccc(C(C)(C)C)cc2)c1=O` [Example 178, 1-{[4-(tert-Butyl)phenyl]methyl}-4-ethyl-3-{3-[4-(3-{[(methylsulfonyl)amino]methyl}phenyl)phenyl]propyl}-1,2,4-triazolin-5-one], the pIC50 is 6.38.

As for `CCn1c(CCCc2ccc(-c3cccc(NS(=O)(=O)c4ccc(Cl)cc4)n3)cc2)nn(Cc2ccc(C(C)(C)C)cc2)c1=O` [Example 83, 1-{[4-(tert-Butyl)phenyl]methyl}-3-{3-[4-(6-{[(4-chlorophenyl)sulfonyl]amino}(2-pyridyl))phenyl]propyl}-4-ethyl-1,2,4-triazolin-5-one], the pIC50 was 7.22.

As for `CCC(=O)NS(=O)(=O)c1cccc(-c2ccc(CCCc3nn(Cc4ccc(C(C)(C)C)cc4)c(=O)n3CC)cc2)c1` [Example 103, N-((4′-(3-(1-(4-(tert-Butyl)benzyl)-4-ethyl-5-oxo-4,5-dihydro-1H-1,2,4-triazol-3-yl)propyl)-[1,1′-biphenyl]-3-yl)sulfonyl)propionamide], the pIC50 was 6.36.

For `CCn1c(CCCc2ccc(-c3cccc(C4(C(=O)O)CC4)c3)cc2)nn(Cc2ccc(C(C)(C)C)cc2)c1=O` [Example 13, 1-(4′-(3-(1-(4-(tert-Butyl)benzyl)-4-ethyl-5-oxo-4,5-dihydro-1H-1,2,4-triazol-3-yl)propyl)-[1,1′-biphenyl]-3-yl)cyclopropanecarboxylic acid], the pIC50 was 6.57.

Regarding `CCn1c(CCCc2ccc(-c3cccc(C(=O)O)c3)cc2)nn(Cc2ccc(C(C)(C)C)cc2)c1=O` [Example 2, 4′-(3-(1-(4-(tert-Butyl)benzyl)-4-ethyl-5-oxo-4,5-dihydro-1H-1,2,4-triazol-3-yl)propyl)-[1,1′-biphenyl]-3-carboxylic acid], the pIC50 is 7.24.

For `CCn1c(CCCc2ccc(-c3ccc(OC)c(C4(C(=O)O)CCC4)c3)cc2)nn(Cc2ccc(C(C)(C)C)cc2)c1=O` [Example 133, 1-(4′-(3-(1-(4-(tert-Butyl)benzyl)-4-ethyl-5-oxo-4,5-dihydro-1H-1,2,4-triazol-3-yl)propyl)-4-methoxy-[1,1′-biphenyl]-3-yl)cyclobutanecarboxylic acid], the pIC50 is 6.22.

On to `CCn1c(CCCc2ccc(-c3cccc(NC(=O)NS(=O)(=O)c4ccccc4)n3)cc2)nn(Cc2ccc(C(C)(C)C)cc2)c1=O` [Example 154, N-((6-(4-(3-(1-(4-(tert-Butyl)benzyl)-4-ethyl-5-oxo-4,5-dihydro-1H-1,2,4-triazol-3-yl)propyl)phenyl)pyridin-2-yl)carbamoyl)benzenesulfonamide], for which the pIC50 was 6.62.

For the compound `CCn1c(CCCc2ccc(-c3ccc(OC)c(CCNS(=O)(=O)c4ccccc4)c3)cc2)nn(Cc2ccc(C(C)(C)C)cc2)c1=O` [Example 182, 1-{[4-(tert-Butyl)phenyl]methyl}-4-ethyl-3-{3-[4-(4-methoxy-3-{2-[(phenylsulfonyl)amino]ethyl}phenyl)phenyl]propyl}-1,2,4-triazolin-5-one], the pIC50 was 6.38.

With `CCn1c(CCCc2ccc(-c3ccc(C4(O)CCC4)cc3)cc2)nn(Cc2ccc(C(C)(C)C)cc2)c1=O` [Example 176, 1-(4-(tert-Butyl)benzyl)-4-ethyl-3-(3-(4′-(1-hydroxycyclobutyl)-[1,1′-biphenyl]-4-yl)propyl)-1H-1,2,4-triazol-5(4H)-one], the pIC50 is 7.11.

Take `CCn1c(CCCc2ccc(-c3cccc(NS(=O)(=O)c4ccccc4)n3)cc2)nn(Cc2ccc(C(C)(C)C)cc2)c1=O` [Example 4, N-(6-(4-(3-(1-(4-(tert-Butyl)benzyl)-4-ethyl-5-oxo-4,5-dihydro-1H-1,2,4-triazol-3-yl)propyl)phenyl)pyridin-2-yl)benzenesulfonamide]: the pIC50 was 7.40.

Turning to `CCn1c(CCCc2ccc(-c3ccc(OC)c(CC(=O)O)c3)cc2OC)nn(Cc2ccc(C(C)(C)C)cc2)c1=O` [Example 158, 2-(4′-(3-(1-(4-(tert-Butyl)benzyl)-4-ethyl-5-oxo-4,5-dihydro-1H-1,2,4-triazol-3-yl)propyl)-3′,4-dimethoxy-[1,1′-biphenyl]-3-yl)acetic acid], the pIC50 was 6.74.

As for `CCOc1ccc(-c2ccc(CCCc3nn(Cc4ccc(C(C)(C)C)cc4)c(=O)n3CC)cc2)cc1CC(=O)O` [Example 38, 2-(4′-(3-(1-(4-(tert-Butyl)benzyl)-4-ethyl-5-oxo-4,5-dihydro-1H-1,2,4-triazol-3-yl)propyl)-4-ethoxy-[1,1′-biphenyl]-3-yl)acetic acid], the negative-log IC50 (pIC50) is 8.00.

Regarding `CCn1c(CCCc2ccc(-c3cc(C(=O)O)cc(C(F)(F)F)c3)cc2)nn(Cc2ccc(C(C)(C)C)cc2)c1=O` [Example 41, 4′-(3-(1-(4-(tert-Butyl)benzyl)-4-ethyl-5-oxo-4,5-dihydro-1H-1,2,4-triazol-3-yl)propyl)-5-(trifluoromethyl)-[1,1′-biphenyl]-3-carboxylic acid], the pIC50 is 6.29.

Turning to `CCn1c(CCCc2ccc(-c3ccc(S(=O)(=O)NCc4ccccc4)cc3)cc2)nn(Cc2ccc(C(C)(C)C)cc2)c1=O` [Example 99, N-benzyl-4′-(3-(1-(4-(tert-butyl)benzyl)-4-ethyl-5-oxo-4,5-dihydro-1H-1,2,4-triazol-3-yl)propyl)-[1,1′-biphenyl]-4-sulfonamide], the pIC50 is 6.28.

For the compound `CCn1c(CCCc2ccc(-c3ccc(C(F)(F)F)c(NS(=O)(=O)c4ccccc4)n3)cc2)nn(Cc2ccc(C(C)(C)C)cc2)c1=O` [Example 164, 1-{[4-(tert-Butyl)phenyl]methyl}-4-ethyl-3-[3-(4-{6-[(phenylsulfonyl)amino]-5-(trifluoromethyl)(2-pyridyl)}phenyl)propyl]-1,2,4-triazolin-5-one], the pIC50 was 7.70.

On to `CCn1c(CCCc2ccc(-c3cccc(C(C)(C)C(N)=O)c3)cc2)nn(Cc2ccc(C(C)(C)C)cc2)c1=O` [Example 15, 2-(4′-(3-(1-(4-(tert-Butyl)benzyl)-4-ethyl-5-oxo-4,5-dihydro-1H-1,2,4-triazol-3-yl)propyl)-[1,1′-biphenyl]-3-yl)-2-methylpropanamide], for which the pIC50 was 6.28.

As to `CCn1c(CCCc2ccc(-c3cccc(NC(=O)NCc4ccccc4)n3)cc2)nn(Cc2ccc(C(C)(C)C)cc2)c1=O` [Example 155, 1-Benzyl-3-(6-(4-(3-(1-(4-(tert-butyl)benzyl)-4-ethyl-5-oxo-4,5-dihydro-1H-1,2,4-triazol-3-yl)propyl)phenyl)pyridin-2yl)urea], the pIC50 is 6.44.

Broadly, the pIC50 is the negative decadic logarithm of the IC50, by convention in mol/L.
